Experimental data published in patent US20170234881A1, “METHODS OF DIAGNOSING AND TREATING CANCER” (INSERM ( INSTITUT NATIONAL DE LA SANTÉ ET DE LA RECHERCHE …, priority 2014, published 2017).

Tested on: MCF7 cells
Assay: Cell invasion assay (matrigel-coated filters), MCF7
Format: cell-based, human
Conditions: concentration-dependent, level reached
Method: FIG. 2. OCDO is a tumor promoter in vitro and in vivo and its inhibition contributes to the anti-tumor effects of Tam and DDA. (A, B) Histograms representing the effect of OCDO or 17β-estrogen (E2) on MCF7 (A) and TS/A (B) cell proliferation after 24 h treatment using a colorimetric immunoassay measuring BrDU incorporation in DNA (C, D) Histogram representing the effect of OCDO on MCF7 (C) and TS/A (D) cell invasion. Data are the mean of three separate experiments (±s.e.m), *P<0.05, **P<0.01, ***P<0.001 (Student's t-test). (E, F) Mice were implanted s.c. with MCF7 (E) or TS/A (F) cells and animals (8 per group) were treated s.c. every day starting on the day of implantation with either the solvent vehicle or OCDO (16 μg/kg for MCF7 or 50 μg/kg for TS/A). Animals were monitored for tumour growth twice a week. The data are representative of three independent experiments. The mean tumor volume±s.e.m is shown, *P<0.05, **P<0.01, ***P<0.001 (analysis of variance (ANOVA), Dunnett's post test). (G) Mean (±s.e.m) of Ki67 positive cell number determined from IHC staining of MCF7 tumor sections from (E), n=8, *P<0.05 (Student's t-test) using HistoQuant, Pannoramic Viewer (3DHistech). […]
Invasion assays were carried out using Bio-Coat migration chambers (BD Falcon) with 8 μm filters previously coated with matrigel. […] The entire membranes were mounted on glass slides, and were counted under a microscope. […]

Structure (SMILES): CC(C)CCC[C@@H](C)[C@H]1CC[C@H]2[C@@H]3CC(=O)[C@@]4(O)C[C@@H](O)CC[C@]4(C)[C@H]3CC[C@]12C [OCDO, 6-oxo-cholestan-3β,5α-diol]
- invasiveness compared with the control: 6 fold
